Measured values: paper PMC8194506 (Antiviral research, 2020)

Conditions: guinea pig, in vivo

CCN(CC)CCOc1ccc2c(c1)C(=O)c1cc(OCCN(CC)CC)ccc1-2 [Tilorone]
well tolerated dose: ≤ 60 mg/kg
